In one experiment the target is T1, human V1a receptor (Homo sapiens, UniProt P37288).
T1 construct: expressed in transfected cells; host or cells: CHO K1 (Chinese hamster ovary), also stably transfected with a modified aequorin
Put plainly: Cellular in vitro assay for vasopressin receptor activity (V1a, aequorin luminescence). Format: cell-based. The conditions noted are these: for IC50: CHO cell line with human V1a receptor, [Arg8]-vasopressin at EC50, values are for the prodrug as such, read-out: IC50 hV1a; for ratio IC50 hV2/hV1a: selectivity ratio hV2/hV1a. The method, then:
(§1) B-1. Cellular In Vitro Assay for Determining Vasopressin Receptor Activity
(§2) The identification of agonists and antagonists of the V1a and V2 vasopressin receptors from humans, rats and dogs as well as the quantification of the activity of the compounds of the invention is carried out using recombinant cell lines. These cell lines originally derive from a hamster's ovary epithelial cell (Chinese Hamster Ovary, CHO K1, ATCC: American Type Culture Collection, Manassas, Va. 20108, USA). The test cell lines constitutively express the human, rat or dog V1a or V2 receptors. In case of the Gaq-coupled V1a receptors, cells are also stably transfected with a modified form of the calcium-sensitive photoproteins aequorin (human and rat V1a) or obelin (dog V1a), which, after reconstitution with the cofactor coelenterazine, emit light when there are increases in free calcium concentrations [Rizzuto R, Simpson A W, Brini M, Pozzan T, Nature 358, 325-327 (1992); Illarionov B A, Bondar V S, Illarionova V A, Vysotski E S, Gene 153 (2), 273-274 (1995)]. The resulting vasopressin receptor cells react to stimulation of the recombinantly expressed Via receptors by intracellular release of calcium ions, which can be quantified by the resulting photoprotein luminescence. The Gs-coupled V2 receptors are stably transfected into cell lines expressing the gene for firefly luciferase under control of a CRE-responsible promoter. Activation of V2 receptors induces the activation of the CRE-responsive promoter via cAMP increase, thereby inducing the expression of firefly luciferase. The light emitted by photoproteins of V1a cell lines as well as the light emitted by firefly luciferase of V2 cell lines corresponds to the activation or inhibition of the respective vasopressin receptor. The bioluminescence of the cell lines is detected using a suitable luminometer [Milligan G, Marshall F, Rees S, Trends in Pharmacological Sciences 17, 235-237 (1996)].
Vasopressin V1a Receptor Cell Lines:
On the day before the assay, the cells are plated out in culture medium (DMEM/F12, 2% FCS, 2 mM glutamine, 10 mM HEPES, 5 μg/ml coelenterazine) in 384-well microtiter plates and kept in a cell incubator (96% humidity, 5% v/v CO2, 37C). On the day of the assay, test compounds in various concentrations are placed for 10 minutes in the wells of the microtiter plate before the agonist [Arg^8]-vasopressin at EC50 concentration is added. The resulting light signal is measured immediately in a luminometer.
(§3) Table 1A below lists individual IC50 values for the compounds of the invention (including racemic mixtures as well as separated enantiomers) that were obtained from cell lines transfected with the human V1a or V2 receptor. This means these IC50 values are the values for the prodrug and not for the underlying respective drug as the prodrug is mainly stable under the assay conditions.

In a further experiment the target is T2, human V2 receptor (Homo sapiens, UniProt P30518).
T2 construct: expressed in transfected cells; host or cells: CHO K1 cells expressing firefly luciferase under a CRE-responsive promoter
Put plainly: Cellular in vitro assay for vasopressin receptor activity (V2, CRE-luciferase). Format: cell-based. The settings on record: CHO cell line with human V2 receptor, [Arg8]-vasopressin at EC50; values are for the prodrug as such; read-out: IC50 hV2. The protocol: as §1, §2
Vasopressin V2 Receptor Cell Lines:
On the day before the assay, the cells are plated out in culture medium (DMEM/F12, 2% FCS, 2 mM glutamine, 10 mM HEPES) in 384-well microtiter plates and kept in a cell incubator (96% humidity, 5% v/v CO2, 37C). On the day of the assay, test compounds in various concentrations and the agonist [Arg^8]-vasopressin at EC50 concentration are added together to the wells, and plates are incubated for 3 hours in a cell incubator. Upon addition of the cell lysis reagent Triton™ and the substrate luciferin, luminescence of firefly luciferase is measured in a luminometer.
as §3

From patent publication US11298367B2, “Prodrugs of substituted triazole derivatives and uses thereof” (Bayer Aktiengesellschaft, priority 2017, dated 2022) come the findings set out here.

What is called IC50 is the midpoint of a concentration-inhibition curve.

T1 sequence (P37288 whole entry): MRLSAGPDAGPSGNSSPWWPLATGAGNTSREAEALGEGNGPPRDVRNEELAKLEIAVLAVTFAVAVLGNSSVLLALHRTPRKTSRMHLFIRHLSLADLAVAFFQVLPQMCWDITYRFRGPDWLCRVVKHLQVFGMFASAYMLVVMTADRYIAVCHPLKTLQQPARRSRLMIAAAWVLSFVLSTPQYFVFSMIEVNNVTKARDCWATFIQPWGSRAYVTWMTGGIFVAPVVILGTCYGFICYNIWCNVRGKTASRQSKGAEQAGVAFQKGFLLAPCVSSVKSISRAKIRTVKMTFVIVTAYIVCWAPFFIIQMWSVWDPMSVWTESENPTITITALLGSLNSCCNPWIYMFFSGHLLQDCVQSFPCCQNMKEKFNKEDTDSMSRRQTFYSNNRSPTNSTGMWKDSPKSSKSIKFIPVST
T2 sequence (P30518 whole entry): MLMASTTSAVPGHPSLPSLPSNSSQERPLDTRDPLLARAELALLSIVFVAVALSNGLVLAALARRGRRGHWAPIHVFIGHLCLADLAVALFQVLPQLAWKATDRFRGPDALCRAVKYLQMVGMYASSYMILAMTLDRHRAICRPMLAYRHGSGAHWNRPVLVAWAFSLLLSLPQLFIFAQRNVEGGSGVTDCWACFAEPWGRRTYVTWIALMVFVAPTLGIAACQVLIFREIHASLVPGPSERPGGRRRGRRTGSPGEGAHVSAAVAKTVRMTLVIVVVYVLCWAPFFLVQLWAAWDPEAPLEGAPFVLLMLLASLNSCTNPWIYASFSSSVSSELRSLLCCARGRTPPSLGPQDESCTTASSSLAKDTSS

For the compound `NC(=O)c1nc(Cn2nc(-c3ccc(Cl)cc3)n(C[C@H](OP(=O)([O-])O)C(F)(F)F)c2=O)nn1-c1ncccc1C(F)(F)F.[K+]` [Example 2, Potassium (2S)-3-[1-({5-carbamoyl-1-[3-(trifluoromethyl)pyridin-2-yl]-1H-1,2,4-triazol-3-yl}-methyl)-3-(4-chlorophenyl)-5-oxo-1,5-dihydro-4H-1,2,4-triazol-4-yl]-1,1,1-trifluoropropan-2-yl Hydrogen Phosphate], the figures for the 50% inhibitory concentration (IC50) at human V1a receptor and on human V2 receptor were 39.5 nM and 620 nM, respectively. Also, on human V1a receptor (Phosphate), the “ratio IC50 hV2/hV1a” value was found to be 15.7.
For `NC(=O)c1nc(Cn2nc(-c3ccc(Cl)cc3)n(C[C@H](OP(=O)([O-])O)C(F)(F)F)c2=O)nn1-c1ncccc1C(F)(F)F.[K+]` [Example 3, Potassium (2S)-3-[1-({5-carbamoyl-1-[3-(trifluoromethyl)pyridin-2-yl]-1H-1,2,4-triazol-3-yl}-methyl)-3-(4-chlorophenyl)-5-oxo-1,5-dihydro-4H-1,2,4-triazol-4-yl]-1,1,1-trifluoropropan-2-yl Hydrogen Phosphate], in that order: 6.15 nM, 123 nM and 20.0.
The like results for `NC(=O)c1nc(Cn2nc(-c3ccc(Cl)cc3)n(C[C@H](OP(=O)([O-])O)C(F)(F)F)c2=O)nn1-c1ncccc1C(F)(F)F.[Na+]` [Example 5, Sodium (2S)-3-[1-({5-carbamoyl-1-[3-(trifluoromethyl)pyridin-2-yl]-1H-1,2,4-triazol-3-yl}-methyl)-3-(4-chlorophenyl)-5-oxo-1,5-dihydro-4H-1,2,4-triazol-4-yl]-1,1,1-trifluoropropan-2-yl Hydrogen Phosphate] were, in that order, 5.05 nM, 85 nM and 16.8.
Regarding `NC(=O)c1nc(Cn2nc(-c3ccc(Cl)cc3)n(C[C@H](OP(=O)([O-])[O-])C(F)(F)F)c2=O)nn1-c1ncccc1C(F)(F)F.[Ca+2]` [Example 8, Calcium (2S)-3-[1-({5-carbamoyl-1-[3-(trifluoromethyl)pyridin-2-yl]-1H-1,2,4-triazol-3-yl}-methyl)-3-(4-chlorophenyl)-5-oxo-1,5-dihydro-4H-1,2,4-triazol-4-yl]-1,1,1-trifluoropropan-2-yl Phosphate], at human V1a receptor, the IC50 turned out to be 17 nM and the “ratio IC50 hV2/hV1a” value was 8.5. On human V2 receptor, the IC50 came out at 145 nM.
Take `NC(=O)c1nc(Cn2nc(-c3ccc(Cl)cc3)n(C[C@H](OP(=O)([O-])O)C(F)(F)F)c2=O)nn1-c1ccccc1C(F)(F)F.[K+]` [Example 11, Potassium (2S)-3-[1-({5-carbamoyl-1-[2-(trifluoromethyl)phenyl]-1H-1,2,4-triazol-3-yl}methyl)-3-(4-chlorophenyl)-5-oxo-1,5-dihydro-4H-1,2,4-triazol-4-yl]-1,1,1-trifluoropropan-2-yl Hydrogen Phosphate]: the IC50 at human V1a receptor was 40.5 nM; at human V2 receptor, 37 nM. Also, the “ratio IC50 hV2/hV1a” value on human V1a receptor (Phosphate) was determined as 0.9.
For `NC(=O)c1nc(Cn2nc(-c3ccc(Cl)cc3)n(C[C@H](OP(=O)([O-])O)C(F)(F)F)c2=O)nn1-c1ccccc1C(F)(F)F.[K+]` [Example 12, Potassium (2S)-3-[1-({5-carbamoyl-1-[2-(trifluoromethyl)phenyl]-1H-1,2,4-triazol-3-yl}methyl)-3-(4-chlorophenyl)-5-oxo-1,5-dihydro-4H-1,2,4-triazol-4-yl]-1,1,1-trifluoropropan-2-yl Hydrogen Phosphate], in that order: 16.5 nM, 24 nM and 1.5.
On to `NC(=O)c1nc(Cn2nc(-c3ccc(Cl)cc3)n(C[C@H](OP(=O)([O-])O)C(F)(F)F)c2=O)nn1-c1ccccc1C(F)(F)F.[Na+]` [Example 13, Sodium (2S)-3-[1-({5-carbamoyl-1-[2-(trifluoromethyl)phenyl]-1H-1,2,4-triazol-3-yl}methyl)-3-(4-chlorophenyl)-5-oxo-1,5-dihydro-4H-1,2,4-triazol-4-yl]-1,1,1-trifluoropropan-2-yl Hydrogen Phosphate], for which the IC50 was determined as 19 nM on human V1a receptor and 26.5 nM at human V2 receptor. The “ratio IC50 hV2/hV1a” value at human V1a receptor (Phosphate) is given as 1.4.
Regarding `NC(=O)c1nc(Cn2nc(-c3ccc(Cl)cc3)n(C[C@H](OP(=O)([O-])O)C(F)(F)F)c2=O)nn1-c1ccccc1C(F)(F)F.[Na+]` [Example 14, Sodium (2S)-3-[1-({5-carbamoyl-1-[2-(trifluoromethyl)phenyl]-1H-1,2,4-triazol-3-yl}methyl)-3-(4-chlorophenyl)-5-oxo-1,5-dihydro-4H-1,2,4-triazol-4-yl]-1,1,1-trifluoropropan-2-yl Hydrogen Phosphate], the IC50 on human V1a receptor stood at 19 nM; at human V2 receptor it was 18.5 nM. The “ratio IC50 hV2/hV1a” value on human V1a receptor (Phosphate) was 1.0.
As to `NC(=O)c1nc(Cn2nc(-c3ccc(Cl)cc3)n(C[C@H](OP(=O)([O-])[O-])C(F)(F)F)c2=O)nn1-c1ccccc1C(F)(F)F.[Mg+2]` [Example 15, Magnesium (2S)-3-[1-({5-carbamoyl-1-[2-(trifluoromethyl)phenyl]-1H-1,2,4-triazol-3-yl}methyl)-3-(4-chlorophenyl)-5-oxo-1,5-dihydro-4H-1,2,4-triazol-4-yl]-1,1,1-trifluoropropan-2-yl Phosphate], at human V1a receptor, the IC50 was found to be 19.5 nM and the “ratio IC50 hV2/hV1a” value is on record as 1.1. The IC50 on human V2 receptor was found to be 21 nM.
With `NC(=O)c1nc(Cn2nc(-c3ccc(Cl)cc3)n(C[C@H](OP(=O)([O-])[O-])C(F)(F)F)c2=O)nn1-c1ccccc1C(F)(F)F.[Ca+2]` [Example 16, Calcium (2S)-3-[1-({5-carbamoyl-1-[2-(trifluoromethyl)phenyl]-1H-1,2,4-triazol-3-yl}methyl)-3-(4-chlorophenyl)-5-oxo-1,5-dihydro-4H-1,2,4-triazol-4-yl]-1,1,1-trifluoropropan-2-yl Phosphate], at human V1a receptor, the IC50 was 29 nM and the “ratio IC50 hV2/hV1a” value was 1.1. In addition, the concentration for half-maximal inhibition (IC50) at human V2 receptor turned out to be 30.5 nM.
Regarding `NC(=O)c1nc(Cn2nc(-c3ccc(Cl)cc3)n(C[C@H](OP(=O)([O-])O)C(F)(F)F)c2=O)nn1-c1ncccc1Cl.[K+]` [Example 18, Potassium (2S)-3-[1-{[5-carbamoyl-1-(3-chloropyridin-2-yl)-1H-1,2,4-triazol-3-yl]methyl}-3-(4-chlorophenyl)-5-oxo-1,5-dihydro-4H-1,2,4-triazol-4-yl]-1,1,1-trifluoropropan-2-yl Hydrogen Phosphate], the IC50 was determined as 33.5 nM on human V1a receptor and 84 nM at human V2 receptor. Further, at human V1a receptor (Phosphate), the “ratio IC50 hV2/hV1a” value is recorded as 2.5.
On to `NC(=O)c1nc(Cn2nc(-c3ccc(Cl)cc3)n(C[C@H](OP(=O)([O-])O)C(F)(F)F)c2=O)nn1-c1ncccc1Cl.[K+]` [Example 19, Potassium (2S)-3-[1-{[5-carbamoyl-1-(3-chloropyridin-2-yl)-1H-1,2,4-triazol-3-yl]methyl}-3-(4-chlorophenyl)-5-oxo-1,5-dihydro-4H-1,2,4-triazol-4-yl]-1,1,1-trifluoropropan-2-yl Hydrogen Phosphate], for which the IC50 at human V1a receptor is 24 nM; on human V2 receptor, 51 nM. Also, at human V1a receptor (Phosphate), the “ratio IC50 hV2/hV1a” value was found to be 2.1.
